# Measured values as given in EP4745138A1, “THIO-GLUTARIMIDO ISOINDOLINONE DERIVATIVE, BIFUNCTIONAL PROTEIN DEGRADER CONTAINING SAME, AND USES THEREOF” (Gluetacs Therapeutics (Shanghai) Co., Ltd., priority 2023, dated 2025).
# Molecular target: T1, human Cereblon WT GST-tagged protein (Homo sapiens, UniProt Q96SW2)
# T1 construct: purchased CISBIO 64BDCRBNPEH
# Test: CRBN-binding affinity, HTRF (CEREBLON BINDING kit)
# Conditions: for inhibition at 0.5 µM: read-out: Inhibition Rate at 0.5 µM (%); for inhibition at 2 µM: read-out: Inhibition Rate at 2 µM (%)
# Excerpt: The CEREBLON BINDING kits (specification: 10,000 tests; product number: Catalog # 64BDCRBNPEH; CISBIO company) was used to determine the CRBN binding ability of the compounds to be tested through a HTRF method (homogeneous time-resolved fluorescence). The specific methods are as follows: • 1. […] Specifically, diluent #9 (1X) solution was used as the diluent, and multiple concentration gradients were set. […] Into the 96-well plate, the diluted test compounds and corresponding detection reagents were added, resulting in final test compound concentrations of 2 µM and 0.5 µM, respectively. […] Then, 2.5 µL of human Cereblon WT GST-tagged protein solution was added to each well. Finally, 5 µL of the thoroughly mixed Thalidomide-Re reagent and GST Eu antibody working solution were added to each of the aforementioned wells. […] The blank control wells were sequentially added with 2.5 µL of diluent #9 (1X) solution, 2.5 µL of PROTAC binding buffer, and 5 µL of thoroughly mixed Thalidomide-Re reagent and GST Eu antibody working solution. • 4.
# T1 sequence (Q96SW2 whole entry): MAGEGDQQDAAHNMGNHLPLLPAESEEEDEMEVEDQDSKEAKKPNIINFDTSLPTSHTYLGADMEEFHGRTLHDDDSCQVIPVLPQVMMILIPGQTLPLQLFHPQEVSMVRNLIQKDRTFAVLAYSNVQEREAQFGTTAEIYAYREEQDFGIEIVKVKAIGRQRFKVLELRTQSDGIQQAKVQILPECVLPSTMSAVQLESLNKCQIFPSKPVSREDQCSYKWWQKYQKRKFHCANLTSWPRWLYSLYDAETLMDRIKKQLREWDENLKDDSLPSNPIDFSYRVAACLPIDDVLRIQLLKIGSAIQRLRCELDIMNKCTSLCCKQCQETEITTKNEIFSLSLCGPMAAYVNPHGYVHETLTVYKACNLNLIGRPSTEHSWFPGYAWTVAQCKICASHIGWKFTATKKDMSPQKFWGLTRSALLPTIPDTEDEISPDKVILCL
inhibition at 0.5 µM [%],inhibition at 2 µM [%],SMILES
40 to 53,80 to 100,"COc1cc(N2CCC(N3CCN(Cc4cccc5c4CN(C4CCC(=O)NC4=O)C5=S)CC3)CC2)c(C)cc1Nc1ncc(Br)c(Nc2ccc3nccnc3c2P(C)(C)=O)n1 (centres unmarked) [GT-05058, 3-(4-((4-(1-(4-((5-bromo-4-((5-(dimethylphosphoryl)quinoxalin-6-yl)amino)pyrimidin-2-yl)amino)-5-methoxy-2-methylphenyl)piperidin-4-yl)piperazin-1-yl)methyl)-1-thioxoisoindolin-2-yl)piperidine-2,6-dione]"
60 to 80,80 to 100,"Nc1nnc(-c2cc(F)ccc2O)cc1N1CCN(Cc2ccc3c(c2)CN(C2CCC(=O)NC2=O)C3=S)CC1 (centres unmarked) [GT-08712, 3-(5-((4-(3-amino-6-(5-fluoro-2-hydroxyphenyl)pyridazin-4-yl)piperazin-1-yl)methyl)-1-thioxoisoindolin-2-yl)piperidine-2,6-dione]"
53 to 60,80 to 100,"O=C1CCC(N2Cc3cc(CN4CCN(c5ncc(C(=O)Nc6ccc(OC(F)(F)Cl)cc6)cc5-c5cc[nH]n5)CC4)ccc3C2=S)C(=O)N1 (centres unmarked) [GT-08769, N-(4-(chlorodifluoromethoxy)phenyl)-6-(4-((2-(2,6-dioxopiperidin-3-yl)-1-thioxoisoindolin-5-yl)methyl)piperazin-1-yl)-5-(1H-pyrazol-3-yl)nicotinamide]"
60 to 80,80 to 100,"Nc1nnc(-c2ccccc2O)cc1N1CCN(Cc2ccc3c(c2)CN(C2CCC(=O)NC2=O)C3=S)CC1 (centres unmarked) [GT-08785, 3-(5-((4-(3-amino-6-(2-hydroxyphenyl)pyridazin-4-yl)piperazin-1-yl)methyl)-1-thioxoisoindolin-2-yl)piperidine-2,6-dione]"
60 to 80,80 to 100,"Nc1nnc(-c2cc(F)ccc2O)cc1N1CCN(Cc2ccc3c(c2)C(=S)N(C2CCC(=O)NC2=O)C3)CC1 (centres unmarked) [GT-08789, 3-(6-((4-(3-amino-6-(5-fluoro-2-hydroxyphenyl)pyridazin-4-yl)piperazin-1-yl)methyl)-1-thioxoisoindolin-2-yl)piperidine-2,6-dione]"
53 to 60,60 to 80,"Cc1cc(S(=O)(=O)N2CCN(Cc3ccc4c(c3)C(=S)N(C3CCC(=O)NC3=O)C4)CC2)ccc1Nc1ncc(Br)c(Nc2cccc(F)c2C(N)=O)n1 (centres unmarked) [GT-08794, 2-((5-bromo-2-((4-((4-((2-(2,6-dioxopiperidin-3-yl)-3-thioxoisoindolin-5-yl)methyl)piperazin-1-yl)sulfonyl)-2-methylphenyl)amino)pyrimidin-4-yl)amino)-6-fluorobenzamide]"
53 to 60,60 to 80,"Nc1nc(Nc2ccc(S(=O)(=O)N3CCN(Cc4cccc5c4CN(C4CCC(=O)NC4=O)C5=S)CC3)cc2)nn1C(=O)c1c(F)cccc1F (centres unmarked) [GT-08795, 3-(4-((4-((4-((5-amino-1-(2,6-difluorobenzoyl)-1H-1,2,4-triazol-3-yl)amino)phenyl)sulfony 1)piperazin-1-yl)methyl)-1-thioxoisoindolin-2-yl)piperidine-2,6-dione]"
80 to 100,80 to 100,"Nc1nc(Nc2ccc(S(=O)(=O)N3CCN(Cc4ccc5c(c4)C(=S)N(C4CCC(=O)NC4=O)C5)CC3)cc2)nn1C(=O)c1c(F)cccc1F (centres unmarked) [GT-08796, 3-(6-((4-((4-((5-amino-1-(2,6-difluorobenzoyl)-1H-1,2,4-triazol-3-yl)amino)phenyl)sulfonyl)piperazin-1-yl)methyl)-1-thioxoisoindolin-2-yl)piperidine-2,6-dione]"

# More lines, now with the values behind:
SMILES,inhibition at 0.5 µM [%],inhibition at 2 µM [%]
"COc1cc(N2CCC(N3CCN(C)CC3)CC2)ccc1Nc1ncc(Cl)c(Nc2ccccc2P(C)(C)=O)n1 [Brigatinib, reference compound]",0 to 10,10 to 20
"Nc1ncnc2c1c(-c1ccc(Oc3ccccc3)cc1)nn2C1CCN(Cc2cccc3c2CN(C2CCC(=O)NC2=O)C3=S)CC1 (centres unmarked) [GT-05074, 3-(4-((4-(4-amino-3-(4-phenoxyphenyl)-1H-pyrazolo[3,4-d]pyrimidin-1-yl)piperidin-1-yl)methyl)-1-thioxoisoindolin-2-yl)piperidine-2,6-dione]",40 to 53,60 to 80
"CC(C)Nc1cc(-n2ccc3cc(C#N)cnc32)ncc1C(=O)NC1CCN(Cc2ccc3c(c2)CN(C2CCC(=O)NC2=O)C3=S)CC1 (centres unmarked) [GT-05294, 6-(5-cyano-1H-pyrrolo[2,3-b]pyridin-1-yl)-N-(1-((2-(2,6-dioxopiperidin-3-yl)-1-thioxoisoindolin-5-yl)methyl)piperidin-4-yl)-4-(isopropylamino)nicotinamide]",60 to 80,80 to 100
"COc1cc2nn(C3CCN(Cc4ccc5c(c4)CN(C4CCC(=O)NC4=O)C5=S)CC3)cc2cc1NC(=O)c1cccc(C(F)(F)F)c1 (centres unmarked) [GT-05295, N-(2-(1-((2-(2,6-dioxopiperidin-3-yl)-1-thioxoisoindolin-5-yl)methyl)piperidin-4-yl)-6-methoxy-2H-indazol-5-yl)-3-(trifluoromethyl)benzamide]",60 to 80,80 to 100
"CC(C)(O)c1cc2nc(C3CCN(Cc4ccc5c(c4)CN(C4CCC(=O)NC4=O)C5=S)CC3)sc2cc1NC(=O)c1cccc(C(F)(F)F)n1 (centres unmarked) [GT-05298, N-(2-(1-((2-(2,6-dioxopiperidin-3-yl)-1-thioxoisoindolin-5-yl)methyl)piperidin-4-yl)-5-(2-hydroxypropan-2-yl)benzo[d]thiazol-6-yl)-6-(trifluoromethyl)picolinamide]",80 to 100,80 to 100
"CC(C)(O)c1cc2nc(C3CCN(Cc4ccc5c(c4)CN(C4CCC(=O)NC4=O)C5=S)CC3)oc2cc1NC(=O)c1cccc(C(F)(F)F)n1 (centres unmarked) [GT-05320, N-(2-(1-((2-(2,6-dioxopiperidin-3-yl)-1-thioxoisoindolin-5-yl)methyl)piperidin-4-yl)-5-(2-hydroxypropan-2-yl)benzo[d]oxazol-6-yl)-6-(trifluoromethyl)picolinamide]",80 to 100,80 to 100
"Nc1nnc(-c2cc(F)ccc2O)cc1N1CC2CCC(C1)N2Cc1ccc2c(c1)CN(C1CCC(=O)NC1=O)C2=S (centres unmarked) [GT-08713, 3-(5-((3-(3-amino-6-(5-fluoro-2-hydroxyphenyl)pyridazin-4-yl)-3,8-diazabicyclo[3.2.1]octan-8-yl)methyl)-1-thioxoisoindolin-2-yl)piperidine-2,6-dione]",40 to 53,80 to 100
"N#CC1(CNc2nc(-c3cc(NC4CCN(Cc5ccc6c(c5)C(=S)N(C5CCC(=O)NC5=O)C6)CC4)ncc3Cl)cs2)CCOCC1 (centres unmarked) [GT-08750, 4-(((4-(5-chloro-2-((1-((2-(2,6-dioxopiperidin-3-yl)-3-thioxoisoindolin-5-yl)methyl)piperidin-4-yl)amino)pyridin-4-yl)thiazol-2-yl)amino)methyl)tetrahy dro-2H-pyran-4-carbonitrile]",60 to 80,80 to 100
"COC1CCN(c2nccc(Nc3cc4c(cn3)c(N3CCN(Cc5cccc6c5CN(C5CCC(=O)NC5=O)C6=S)CC3)nn4C(C)C)n2)CC1 (centres unmarked) [GT-08759, 3-(4-((4-(1-isopropyl-6-((2-(4-methoxypiperidin-1-yl)pyrimidin-4-yl)amino)-1H-pyrazolo[4,3-c]pyridin-3-yl)piperazin-1-yl)methyl)-1-thioxoisoindolin-2-yl)piperidine-2,6-dione]",30 to 40,60 to 80
"O=C1CCC(N2Cc3c(CN4CCN(c5ncc(C(=O)Nc6ccc(OC(F)(F)Cl)cc6)cc5-c5cc[nH]n5)CC4)cccc3C2=S)C(=O)N1 (centres unmarked) [GT-08775, N-(4-(chlorodifluoromethoxy)phenyl)-6-(4-((2-(2,6-dioxopiperidin-3-yl)-1-thioxoisoindolin-4-yl)methyl)piperazin-1-yl)-5-(1H-pyrazol-3-yl)nicotinamide]",30 to 40,60 to 80
"Nc1nnc(-c2cc(F)ccc2O)cc1N1CCN(Cc2cccc3c2CN(C2CCC(=O)NC2=O)C3=S)CC1 (centres unmarked) [GT-08788, 3-(4-((4-(3-amino-6-(5-fluoro-2-hydroxyphenyl)pyridazin-4-yl)piperazin-1-yl)methyl)-1-thioxoisoindolin-2-yl)piperidine-2,6-dione]",40 to 53,80 to 100
"Nc1nnc(-c2cc(F)ccc2O)cc1N1CC2CCC(C1)N2Cc1cccc2c1CN(C1CCC(=O)NC1=O)C2=S (centres unmarked) [GT-08790, 3-(4-((3-(3-amino-6-(5-fluoro-2-hydroxyphenyl)pyridazin-4-yl)-3,8-diazabicyclo[3.2.1]octan-8-yl)methyl)-1-thioxoisoindolin-2-yl)piperidine-2,6-dione]",60 to 80,80 to 100
"Nc1nnc(-c2cc(F)ccc2O)cc1N1CC2CCC(C1)N2Cc1ccc2c(c1)C(=S)N(C1CCC(=O)NC1=O)C2 (centres unmarked) [GT-08791, 3-(6-((3-(3-amino-6-(5-fluoro-2-hydroxyphenyl)pyridazin-4-yl)-3,8-diazabicyclo[3.2.1]octan-8-yl)methyl)-1-thioxoisoindolin-2-yl)piperidine-2,6-dione]",40 to 53,80 to 100
"CCCc1cc(C)[nH]c(=O)c1CNC(=O)c1cc(-c2ccc(N3CCN(Cc4ccc5c(c4)CN(C4CCC(=O)NC4=O)C5=S)CC3)nc2)cc2c1cnn2C(C)C (centres unmarked) [GT-08885, 6-(6-(4-((2-(2,6-dioxopiperidin-3-yl)-1-thioxoisoindolin-5-yl)methyl)piperazin-1-yl)pyridin-3-yl)-1-isopropyl-N-((6-methyl-2-oxo-4-propyl-1,2-dihydropyridin-3-yl)methyl)-1H-indazole-4-carboxamide]",40 to 53,60 to 80
